Entries after “also recorded” stand apart in the source; their conditions may differ.

The source of these data is patent US20150168416A1, “KITS FOR DETECTING AND MONITORING ENDOCRINE DISRUPTING CHEMICALS (EDCs)” (THE UNITED STATES OF AMERICA, as represented by the …, priority 2012, published 2015).

Common to all, as to format: cell-based
One experiment concerns the target T1, GFP-GR (Rattus norvegicus, UniProt P06536, C656G/D98G).
T1 construct: expressed in transfected cells; host or cells: 3617 cells (derivative of the 3134 mouse mammary adenocarcinoma line), tetracycline-repressible promoter
The experiment can be described thus: GFP-GR cytoplasm-to-nucleus translocation assay (3617 cells). The settings on record: hormones 100 nM or known concentrations, water samples 100× unless specified, 30 min. How it is done: (§1) Prior to imaging, cells were grown overnight on 22-mm^2 coverslips in DMEM medium containing 10% charcoal stripped serum (Hyclone, Logan, Utah) without tetracycline (to allow the expression of the GFP-GR or GFP-AR, respectively) at a density of 2×10^5 per 6-well plate. For the automated experiments conducted in 96 or 384 well plates, cell density was 10, 000 or 2,500 cells per well, respectively. Cells were treated with vehicle control, hormones (100 nM) or water samples for 30 min at 37° C. at a final concentration of 100×for water samples (unless otherwise specified). Additional negative controls contained samples that tested the activity of the POCIS membranes themselves.
(§2) Upon treatment, cells were fixed with 4% paraformaldehyde in PBS for 15 minutes and washed three times with PBS. Cells on the 22-mm^2 coverslips were mounted in […]® mounting media with DAPI (Vector Laboratories, Inc.) and examined on a Leica DMRA microscope with Leica 100× 1.3-N.A. oil immersion objective. Images were acquired in green (GFP-GR and GFP-AR) and UV (DAPI) channel with SenSys (Photometrics) camera with KAF1400 chip configured to collect 0.067-μm-diameter pixels. For the automated experiments conducted in 96 or 384 well plates, cells were stained with DRAQ5 (BioStatus Limited) at a dilution of 1:5000 for 15 minutes and after three final washes with PBS were imaged either immediately on the Perkin Elmer Opera Image Screening System or kept in PBS at 4° C. for later imaging.
(§3) A Perkin Elmer Opera Image Screening System was used for fully automated collection of fluorescence images of cells. This system employed a 40×water immersion objective lens, laser illuminated Nipkow disk, and cooled CCD cameras to digitally capture high resolution confocal fluorescence micrographs (300 nm pixel size with 2×2 camera pixel binning). […] The algorithm also measured the mean GFP-GR or GFP-AR intensity in both compartments, and translocation was calculated as a ratio of these intensities. […]

The target in the next experiment is T2, GFP-AR (Homo sapiens, UniProt P10275).
T2 construct: expressed in transfected cells; host or cells: 3108 cells (derivative of the 3134 mouse mammary adenocarcinoma line), tetracycline-repressible promoter
Briefly: GFP-AR cytoplasm-to-nucleus translocation assay (3108 cells). The settings on record: hormones 100 nM or known concentrations, water samples 100× unless specified, 30 min. How it is done:
as §1, §2, §3

A further experiment concerns the target T3, eGFP-ratMR (Rattus norvegicus, UniProt P22199, A771G/D487G).
T3 construct: expressed in transfected cells
The experiment can be described thus: eGFP-ratMR translocation in mammalian cells. An excerpt: (§4) Using molecular cloning methods essentially similar to those employed in Example 1, the following additional traceable fusion proteins have been constructed: an aryl hydrocarbon (e.g., dioxin) sensitive fusion protein, pRevTRE-GFP-mAhR (SEQ ID NOs: 9/10); a mineralocorticoid (e.g., aldosterone) sensitive fusion protein, eGFP-ratMR (SEQ ID NOs: 11/12); and a progestin-sensitive fusion protein, eGFP-hPRB (SEQ ID NOs: 13/14).

The next experiment deals with T4, pRevTRE-GFP-mAhR (Mus musculus, UniProt P30561).
T4 construct: expressed in transfected cells
Briefly: pRevTRE-GFP-mAhR translocation in mammalian cells.
Excerpt: as §4

For a further experiment, the target named is T5, GFP-PR-B (eGFP-hPRB) (Homo sapiens, UniProt P06401).
T5 construct: Five mammalian clonal lines expressing the same traceable fusion protein, GFP-PR-B (eGFP-hPRB); expressed in transfected cells
Briefly: GFP-PR-B translocation in clonal cell lines. The settings on record: clones 8122, 8124, 8127, 8130 (four of five tested). An excerpt: Five mammalian clonal lines expressing the same traceable fusion protein, GFP-PR-B (eGFP-hPRB; SEQ ID NO: 14) were contacted with the indicated levels of progesterone, then assayed essentially as in Example 1 for translocation of the fusion protein into the nucleus from the cytoplasm.

`C[C@@]12CCC[C@H]1[C@@H]1CC(=O)C3=CC(=O)CC[C@]3(C)[C@H]1CC2` [Androst-4-en-3,6-dione]: the GFP-GR nuclear translocation entry at GFP-GR is given as “did not induce GFP-GR translocation”. Further, the GFP-AR nuclear translocation entry on GFP-AR is reported as “induced GFP-tagged androgen receptor (GFP-AR) translocation”; at GFP-AR (listed as androst-4-en-3,6-dione) it was “translocated to the nucleus in concentration-dependent manner; also recorded: induces concentration-dependent translocation”; on GFP-AR (listed as androst-4-ene-3,6-dione), “GFP-AR nuclear translocation”.

With `C[C@]12CCC(=O)C=C1CC[C@@H]1[C@@H]2[C@@H](O)C[C@]2(C=O)[C@@H](C(=O)CO)CC[C@@H]12` [aldosterone], at eGFP-ratMR, the eGFP-ratMR translocation entry is given as “exhibited the expected translocation”.

Regarding `CCNc1nc(Cl)nc(NC(C)C)n1` [atrazine], the GFP-GR nuclear translocation result on GFP-GR was “did not induce GFP-GR translocation”.

`C[C@]12C[C@H](O)[C@H]3[C@@H](CCC4=CC(=O)CC[C@@]43C)[C@@H]1CC[C@@H]2C(=O)CO` [corticosterone]: the GFP-GR nuclear translocation result on GFP-GR is listed as “translocates to the nucleus in a concentration-dependent manner; also recorded: GFP-GR translocation”.

As for `C1=COC=CO1` [dioxin], the pRevTRE-GFP-mAhR translocation entry at pRevTRE-GFP-mAhR is on record as “exhibited the expected translocation”.

As to `CC(=O)[C@H]1CC[C@H]2[C@@H]3CCC4=CC(=O)CC[C@]4(C)[C@H]3CC[C@]12C` [progesterone], the GFP-PR-B translocation entry on GFP-PR-B (eGFP-hPRB) is reported as “exhibited the expected translocation; also recorded: positive for translocation”.
